Reference: patent US6737383B1, “Herbicidal oxadiazolidines” (priority 1999, dated 2004)

Key:
[1] = test system: corn; test: Test B pre/postemergence corn; format: in vivo, Zea mays
In short: (§1)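 Response is a visual 0-to-10 score relative to untreated plants, where 0 means no effect and 10 means complete control, taken twelve to sixteen days after application. Treatments went onto soil at planting and onto foliage of 1- to 4-leaf plants, using a surfactant-containing non-phytotoxic solvent.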

[2] = test system: crabgrass; test: Test B pre/postemergence crabgrass; format: in vivo, Digitaria sanguinalis
In short: as §1

[3] = test system: sugar beet; test: Test B pre/postemergence sugar beet; format: in vivo, Beta vulgaris
In short: as §1

[4] = test system: rice; test: Test B flood test rice; format: in vivo, Oryza sativa
In short: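 Plants were grown to the 2-leaf stage before treatment with test chemical, then held in a greenhouse for twelve to sixteen days. Injury was visually rated against untreated controls on a 0–10 scale, where 0 is no effect and 10 is complete control.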

[5] = test system: winter wheat; test: Test E winter wheat; format: in vivo, Triticum aestivum; conditions: Postemergence; for Wheat (winter) plant response rating: Rate 250 g/ha
In short: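 Greenhouse-grown plants are treated (postemergence: 1- to 4-leaf stage, sandy loam/potting mix 60:40), then evaluated visually versus untreated controls some 21 to 28 days later.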

[6] = test system: blackgrass; test: Test E blackgrass; format: in vivo, Alopecurus myosuroides; conditions: Preemergence; for Blackgrass plant response rating (0 to 100 scale): Rate 250 g/ha
[7] = test system: green foxtail; test: Test E green foxtail; format: in vivo, Setaria viridis; conditions: Preemergence; for Green foxtail plant response rating (0 to 100 scale): Rate 250 g/ha
[8] = test system: Italian ryegrass; test: Test E Italian ryegrass; format: in vivo, Lolium multiflorum; conditions: Preemergence; for I. Ryegrass plant response rating (0 to 100 scale): Rate 250 g/ha
[9] = test system: winter wheat; test: Test E winter wheat; format: in vivo, Triticum aestivum; conditions: Preemergence; for Wheat (winter) plant response rating (0 to 100 scale): Rate 250 g/ha
[10] = test system: wild oat; test: Test E wild oat; format: in vivo, Avena fatua; conditions: Preemergence; for Wild oat plant response rating (0 to 100 scale): Rate 250 g/ha
[11] = test system: winter barley; test: Test E winter barley; format: in vivo, Hordeum vulgare; conditions: Preemergence; for Barley (winter) plant response rating (0 to 100 scale): Rate 250 g/ha
[12] = Preemergence, Rate 62 g/ha, scale of 0 to 10 where 0 is no effect and 10 is complete control
[13] = Preemergence, Rate 250 g/ha, scale of 0 to 10 where 0 is no effect and 10 is complete control
[14] = Preemergence, Rate 500 g/ha, scale of 0 to 10 where 0 is no effect and 10 is complete control
[15] = Rate 62 g/ha, Postemergence, scale of 0 to 10 where 0 is no effect and 10 is complete control
[16] = Rate 125 g/ha, Postemergence, scale of 0 to 10 where 0 is no effect and 10 is complete control
[17] = Rate 125 g/ha, Preemergence, scale of 0 to 10 where 0 is no effect and 10 is complete control
[18] = Rate 250 g/ha, Postemergence, scale of 0 to 10 where 0 is no effect and 10 is complete control
[19] = Rate 500 g/ha, Postemergence, scale 0 to 10, 0 no effect, 10 complete control
[20] = Rate 62 g/ha, headed Pre-emergence (flood test species), scale 0 to 10 (0 no effect, 10 complete control)
[21] = Rate 125 g/ha, Pre-emergence, flood test species, scale 0 to 10 where 0 is no effect and 10 is complete control
[22] = Rate 250 g/ha, Pre-emergence, flood-test species, scale 0 to 10, 0 is no effect, 10 is complete control
[23] = Rate 500 g/ha, Pre-emergence, flood test species, scale 0 to 10 (0 no effect, 10 complete control)
[24] = 0 to 100 scale where 0 is no effect and 100 is complete control
[25] = Rate 500 g/ha, 0 to 100 scale, 0 is no effect, 100 is complete control
[26] = Rate 125 g/ha, 0 to 100 scale (0 no effect, 100 complete control)
[27] = Rate 500 g/ha, 0 to 100 scale where 0 is no effect and 100 is complete control
[28] = Rate 1000 g/ha, 0 to 100 scale, 0 no effect, 100 complete control

CC(C)N(C(=O)n1oc(=O)n(CC(C)(C)C)c1=O)c1ccccc1 [Compound 276]
Corn plant response rating [1, 12]: 0
Corn plant response rating [1, 13]: 0
Plant response rating, Corn [1, 14]: 0
Corn plant response rating [1, 15]: 0
Corn plant response rating [1, 16]: 0
Corn plant response rating [1, 17]: 0
Plant response rating, Corn [1, 18]: 0
Corn plant response rating [1, 19]: 0
Crabgrass plant response rating [2, 12]: 3
Crabgrass plant response rating [2, 13]: 6
Plant response rating, Crabgrass [2, 14]: 7
Crabgrass plant response rating [2, 16]: 0
Crabgrass plant response rating [2, 17]: 4
Plant response rating, Crabgrass [2, 18]: 6
Crabgrass plant response rating [2, 19]: 7
Sugarbeets plant response rating [3, 12]: 0
Sugarbeets plant response rating [3, 13]: 1
Plant response rating, Sugarbeets [3, 14]: 7
Sugarbeets plant response rating [3, 16]: 0
Sugarbeets plant response rating [3, 17]: 1
Plant response rating, Sugarbeets [3, 18]: 2
Sugarbeets plant response rating [3, 19]: 2
Rice plant response rating [4, 20]: 0
Rice plant response rating [4, 21]: 0
Rice plant response rating [4, 22]: 0
Rice plant response rating [4, 23]: 0
Plant response rating, Wheat (winter) ([5]; Rate 125 g/ha, 0 to 100 scale, 0 is no effect, 100 is complete control): 10
Wheat (winter) plant response rating [5, 24]: 10
Plant response rating, Wheat (winter) [5, 25]: 20
Plant response rating, Blackgrass [6, 26]: 30
Blackgrass plant response rating (0 to 100 scale) [6]: 50
Plant response rating, Blackgrass [6, 27]: 50
Plant response rating, Green foxtail [7, 26]: 60
Green foxtail plant response rating (0 to 100 scale) [7]: 100
Plant response rating, Green foxtail [7, 27]: 98
Plant response rating, I. Ryegrass [8, 26]: 30
I. Ryegrass plant response rating (0 to 100 scale) [8]: 60
Plant response rating, I. Ryegrass [8, 27]: 50
Plant response rating, Wheat (winter) [9, 26]: 20
Wheat (winter) plant response rating (0 to 100 scale) [9]: 30
Plant response rating, Wheat (winter) [9, 27]: 50
Plant response rating, Wild oat [10, 26]: 50
Wild oat plant response rating (0 to 100 scale) [10]: 60
Plant response rating, Wild oat [10, 27]: 60
Plant response rating, Barley (winter) [11, 26]: 50
Barley (winter) plant response rating (0 to 100 scale) [11]: 30
Plant response rating, Barley (winter) [11, 27]: 50

CCN(C(=O)n1oc(=O)n(N(C)C)c1=O)C1CCCCC1 [Compound 274]
Corn plant response rating [1, 12]: 0
Corn plant response rating [1, 13]: 0
Plant response rating, Corn [1, 14]: 0
Corn plant response rating [1, 15]: 0
Corn plant response rating [1, 16]: 0
Corn plant response rating [1, 17]: 0
Plant response rating, Corn [1, 18]: 0
Corn plant response rating [1, 19]: 0
Crabgrass plant response rating [2, 12]: 0
Crabgrass plant response rating [2, 13]: 1
Plant response rating, Crabgrass [2, 14]: 5
Crabgrass plant response rating [2, 16]: 0
Crabgrass plant response rating [2, 17]: 0
Plant response rating, Crabgrass [2, 18]: 0
Crabgrass plant response rating [2, 19]: 0
Sugarbeets plant response rating [3, 12]: 0
Sugarbeets plant response rating [3, 13]: 0
Plant response rating, Sugarbeets [3, 14]: 0
Sugarbeets plant response rating [3, 16]: 0
Sugarbeets plant response rating [3, 17]: 0
Plant response rating, Sugarbeets [3, 18]: 0
Sugarbeets plant response rating [3, 19]: 1
Rice plant response rating ([4]; Pre-emergence, Rate 1000 g/ha, scale 0 to 10 (0 no effect, 10 complete control)): 0
Rice plant response rating [4, 20]: 0
Rice plant response rating [4, 21]: 0
Rice plant response rating [4, 22]: 0
Rice plant response rating [4, 23]: 0
Rice plant response rating ([4]; Rate 2000 g/ha, Pre-emergence (as headed), scale 0 to 10): 0
Plant response rating, Wheat (winter) ([5]; Rate 1000 g/ha, 0 to 100 scale where 0 is no effect and 100 is complete control): 60
Wheat (winter) plant response rating [5, 24]: 30
Plant response rating, Wheat (winter) [5, 25]: 50
Blackgrass plant response rating (0 to 100 scale) [6]: 0
Plant response rating, Blackgrass [6, 27]: 30
Plant response rating, Blackgrass [6, 28]: 65
Green foxtail plant response rating (0 to 100 scale) [7]: 20
Plant response rating, Green foxtail [7, 27]: 30
Plant response rating, Green foxtail [7, 28]: 40
I. Ryegrass plant response rating (0 to 100 scale) [8]: 20
Plant response rating, I. Ryegrass [8, 27]: 30
Plant response rating, I. Ryegrass [8, 28]: 50
Wheat (winter) plant response rating (0 to 100 scale) [9]: 30
Plant response rating, Wheat (winter) [9, 27]: 50
Plant response rating, Wheat (winter) [9, 28]: 50
Wild oat plant response rating (0 to 100 scale) [10]: 40
Plant response rating, Wild oat [10, 27]: 50
Plant response rating, Wild oat [10, 28]: 60
Barley (winter) plant response rating (0 to 100 scale) [11]: 50
Plant response rating, Barley (winter) [11, 27]: 60
Plant response rating, Barley (winter) [11, 28]: 55
